What was measured:
Assay in all cases: Kinase profiling in a biochemical assay panel (mobility shift assays and ELISA), %-inhibition at 1 μM; selectivity entropy
[1] = target: T1, panel of more than 300 wild-type and mutant kinases (313 kinase panel) (Homo sapiens, UniProt Q13237)
T1 sequence (Q13237 1-762): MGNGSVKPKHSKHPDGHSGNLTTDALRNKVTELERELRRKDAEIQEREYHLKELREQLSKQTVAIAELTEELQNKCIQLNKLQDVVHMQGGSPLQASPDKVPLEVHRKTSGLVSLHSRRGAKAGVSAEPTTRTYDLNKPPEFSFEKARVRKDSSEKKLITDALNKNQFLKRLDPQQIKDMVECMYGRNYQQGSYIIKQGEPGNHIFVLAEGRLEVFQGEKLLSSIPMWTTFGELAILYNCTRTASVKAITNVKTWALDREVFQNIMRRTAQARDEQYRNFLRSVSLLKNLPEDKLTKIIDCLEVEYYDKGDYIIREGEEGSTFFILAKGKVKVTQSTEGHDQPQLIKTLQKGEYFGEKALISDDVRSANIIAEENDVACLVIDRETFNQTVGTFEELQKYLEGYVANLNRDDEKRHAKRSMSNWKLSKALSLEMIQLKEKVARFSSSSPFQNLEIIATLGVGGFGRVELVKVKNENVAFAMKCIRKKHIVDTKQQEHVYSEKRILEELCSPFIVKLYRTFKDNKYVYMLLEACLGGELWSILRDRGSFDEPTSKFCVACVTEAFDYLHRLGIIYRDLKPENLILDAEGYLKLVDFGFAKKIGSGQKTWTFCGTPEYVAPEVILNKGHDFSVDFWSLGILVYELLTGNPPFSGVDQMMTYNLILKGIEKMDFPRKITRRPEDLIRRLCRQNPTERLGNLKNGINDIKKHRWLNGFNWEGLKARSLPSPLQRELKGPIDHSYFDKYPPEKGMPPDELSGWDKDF

[2] = target: T2, panel of more than 300 wild-type and mutant kinases (313 kinase panel) (Homo sapiens, UniProt Q9UF33)
T2 sequence (Q9UF33 23-1036): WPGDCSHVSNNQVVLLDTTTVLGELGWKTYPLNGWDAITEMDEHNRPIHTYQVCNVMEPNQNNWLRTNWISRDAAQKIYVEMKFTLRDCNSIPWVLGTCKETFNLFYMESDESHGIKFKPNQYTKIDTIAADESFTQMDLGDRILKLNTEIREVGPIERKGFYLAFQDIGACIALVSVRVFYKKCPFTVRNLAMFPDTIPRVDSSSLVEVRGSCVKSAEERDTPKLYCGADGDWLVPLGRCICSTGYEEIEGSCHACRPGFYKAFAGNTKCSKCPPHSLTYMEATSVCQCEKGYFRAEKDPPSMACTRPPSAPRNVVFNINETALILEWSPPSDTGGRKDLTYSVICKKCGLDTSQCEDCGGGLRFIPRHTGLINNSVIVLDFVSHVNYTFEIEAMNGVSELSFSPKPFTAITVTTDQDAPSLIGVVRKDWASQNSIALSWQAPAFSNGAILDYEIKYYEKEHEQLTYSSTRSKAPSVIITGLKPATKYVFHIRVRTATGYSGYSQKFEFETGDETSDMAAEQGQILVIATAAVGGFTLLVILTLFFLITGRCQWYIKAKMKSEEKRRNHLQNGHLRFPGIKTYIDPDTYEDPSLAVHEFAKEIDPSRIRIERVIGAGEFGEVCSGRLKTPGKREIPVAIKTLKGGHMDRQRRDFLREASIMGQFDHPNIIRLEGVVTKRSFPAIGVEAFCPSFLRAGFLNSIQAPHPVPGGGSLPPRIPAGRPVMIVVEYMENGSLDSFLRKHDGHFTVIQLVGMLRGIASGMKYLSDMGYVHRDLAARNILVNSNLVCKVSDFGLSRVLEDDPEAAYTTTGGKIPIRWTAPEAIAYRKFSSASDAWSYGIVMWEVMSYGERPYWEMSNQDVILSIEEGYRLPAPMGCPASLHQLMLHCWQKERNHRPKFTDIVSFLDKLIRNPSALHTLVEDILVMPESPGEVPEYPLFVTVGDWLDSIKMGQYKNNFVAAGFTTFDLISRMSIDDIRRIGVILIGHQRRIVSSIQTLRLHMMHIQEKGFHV

[3] = target: T3, panel of more than 300 wild-type and mutant kinases (313 kinase panel) (Homo sapiens, UniProt P43403)
T3 sequence (P43403 1-619): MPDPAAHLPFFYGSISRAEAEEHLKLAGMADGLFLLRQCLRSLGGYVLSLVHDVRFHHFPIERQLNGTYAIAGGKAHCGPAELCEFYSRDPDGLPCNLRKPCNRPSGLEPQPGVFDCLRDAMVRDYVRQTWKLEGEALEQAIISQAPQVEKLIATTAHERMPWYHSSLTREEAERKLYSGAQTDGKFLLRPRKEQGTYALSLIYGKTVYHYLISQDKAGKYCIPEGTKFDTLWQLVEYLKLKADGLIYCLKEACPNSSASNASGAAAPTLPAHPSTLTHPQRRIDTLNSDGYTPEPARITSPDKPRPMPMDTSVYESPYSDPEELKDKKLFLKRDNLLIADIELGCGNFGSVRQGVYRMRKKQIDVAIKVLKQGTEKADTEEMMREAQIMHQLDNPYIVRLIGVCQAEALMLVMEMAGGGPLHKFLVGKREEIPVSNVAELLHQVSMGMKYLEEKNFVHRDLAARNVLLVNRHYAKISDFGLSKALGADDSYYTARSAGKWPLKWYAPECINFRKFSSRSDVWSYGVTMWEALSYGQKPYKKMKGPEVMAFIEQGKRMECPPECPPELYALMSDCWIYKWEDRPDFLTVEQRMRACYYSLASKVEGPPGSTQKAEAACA

[4] = target: panel of more than 300 wild-type and mutant kinases (313 kinase panel) (Homo sapiens, UniProt Q9Y3S1)

| SMILES | %-inhibition, CGK2 ([1]; kinase CGK2, 1 μM compound) [%] | %-inhibition of EPHA6 ([2]; kinase EPHA6, compound at 1 μM) [%] | %-inhibition of ZAP70 ([3]; kinase ZAP70, compound at 1 μM) [%] | %-inhibition of WNK2 ([4]; kinase WNK2, compound at 1 μM) [%] | %-inhibition, CGK2 ([1]; 1 µM) [%] | %-inhibition of EPHA6 ([2]; 1 µM) [%] | %-inhibition of WNK2 ([4]; 1 µM) [%] | %-inhibition of ZAP70 ([3]; 1 µM) [%] |
| --- | --- | --- | --- | --- | --- | --- | --- | --- |
| CO[C@H]1C[C@@H]2CC[C@@H](C)[C@@](O)(O2)C(=O)C(=O)N2CCCC[C@H]2C(=O)O[C@H]([C@H](C)C[C@@H]2CC[C@@H](OC(=O)C(C)(CO)CO)[C@H](OC)C2)CC(=O)[C@H](C)/C=C(\C)[C@@H](O)[C@@H](OC)C(=O)[C@H](C)C[C@H](C)/C=C/C=C/C=C/1C [temsirolimus] | -2.84 | 0.437 | -2.76 | -7 |  |  |  |  |
| CNC(=O)c1cc(Oc2ccc(NC(=O)Nc3ccc(Cl)c(C(F)(F)F)c3)c(F)c2)ccn1 [regorafenib] | -1.78 | 103 | -0.475 | -4.43 |  |  |  |  |
| CO[C@H]1C[C@@H]2CC[C@@H](C)[C@@](O)(O2)C(=O)C(=O)N2CCCC[C@H]2C(=O)O[C@H]([C@H](C)C[C@@H]2CC[C@@H](OCCO)[C@H](OC)C2)CC(=O)[C@H](C)/C=C(\C)[C@@H](O)[C@@H](OC)C(=O)[C@H](C)C[C@H](C)/C=C/C=C/C=C/1C [everolimus] | -4.58 | 2.18 | -2 | -8 |  |  |  |  |
| COc1cc2nccc(Oc3ccc(NC(=O)C4(C(=O)Nc5ccc(F)cc5)CC4)cc3)c2cc1OC [cabozantinib] | -2.55 | 100 | 0.856 | 6.43 |  |  |  |  |
| Cc1nc(Nc2ncc(C(=O)Nc3c(C)cccc3Cl)s2)cc(N2CCN(CCO)CC2)n1 [dasatinib] | -6 |  |  | 20 |  |  |  |  |
| COc1cc2c(Nc3ccc(Br)cc3F)ncnc2cc1OCC1CCN(C)CC1 [vandetanib] | -2.65 |  | 4.47 | -4.29 |  |  |  |  |
| CC(C)(C)c1nc(-c2cccc(NS(=O)(=O)c3c(F)cccc3F)c2F)c(-c2ccnc(N)n2)s1 [dabrafenib] | -1.38 | 88 | 3.47 | 0.686 |  |  |  |  |
| Cc1ccc(Nc2nccc(N(C)c3ccc4c(C)n(C)nc4c3)n2)cc1S(N)(=O)=O [pazopanib] | -1 | 24 | 39 | 3 |  |  |  |  |
| N#CC[C@H](C1CCCC1)n1cc(-c2ncnc3[nH]ccc23)cn1 [ruxolitinib] |  | -1.06 | 2.76 | -4.57 |  |  |  |  |
| C[C@@H](Oc1cc(-c2cnn(C3CCNCC3)c2)cnc1N)c1c(Cl)ccc(F)c1Cl [crizotinib] | -0.915 | 100 | 21 | -4 |  |  |  |  |
| CCCS(=O)(=O)Nc1ccc(F)c(C(=O)c2c[nH]c3ncc(-c4ccc(Cl)cc4)cc23)c1F [vemurafenib] | -2.26 | 37 | 6 | 13 |  |  |  |  |
| O=S(=O)(c1cccc2cnccc12)N1CCCNCC1 [fasudil] | 46 | 6 | -2 | 1.45 |  |  |  |  |
| CS(=O)(=O)CCNCc1ccc(-c2ccc3ncnc(Nc4ccc(OCc5cccc(F)c5)c(Cl)c4)c3c2)o1 [lapatinib] | -9 | 20 | 6 | -5 |  |  |  |  |
| C#Cc1cccc(Nc2ncnc3cc(OCCOC)c(OCCOC)cc23)c1 [erlotinib] |  |  |  |  | -1.7 | 69 | -7 |  |
| Cc1cn(-c2cc(NC(=O)c3ccc(C)c(Nc4nccc(-c5cccnc5)n4)c3)cc(C(F)(F)F)c2)cn1 [nilotinib] | 12 | 30 |  | -8 |  |  |  | 2.52 |
| COc1cc(Nc2c(C#N)cnc3cc(OCCCN4CCN(C)CC4)c(OC)cc23)c(Cl)cc1Cl [bosutinib] | -0.53 | 102 | 76 | 4 |  |  |  |  |
| CC(=O)Nc1cccc(-n2c(=O)n(C3CC3)c(=O)c3c(Nc4ccc(I)cc4F)n(C)c(=O)c(C)c32)c1 [trametinib] | -2.61 |  | -3 | 1.45 |  | -2.51 |  |  |
| Cc1ccc(C(=O)Nc2ccc(CN3CCN(C)CC3)c(C(F)(F)F)c2)cc1C#Cc1cnc2cccnn12 [ponatinib] | 12 | 103 | 5 | 13 |  |  |  |  |
